Here are results for 19 molecules from patent US4668672A, “Feed compositions containing pyridylalkylhydrazides” (SmithKline Beckman Corporation, priority 1985, dated 1987).

The nature of assay [1]: Chick growth study. It counts as in vivo, broiler chicks. The settings on record: for feed conversion / weight gain: chickens; for response vs control in vivo at 40 ppm / response vs control in vivo at 10 ppm / response vs control in vivo at 50 ppm / response vs control in vivo at 49 ppm: Gallus gallus, feed or water, 408 h; for response vs control in vivo at 40 ppm: 40 ppm in feed; for response vs control in vivo at 10 ppm: 10 ppm in feed; for response vs control in vivo at 50 ppm: 50 ppm in feed; for response vs control in vivo at 49 ppm: 49 ppm in feed. The protocol:
512 Day old broiler chicks, selected for weight, health and sex, are housed in an environmentally controlled room with temperature at 37.7° and humidity at 40%. Chicks are fed ad libitum. Water is offered ad libitum. A corn or, preferably, rye basal ration is fed during the acclimation period (days 1 and 2), then, mixed with the compound under test or used as a control on days 3-17. Either 8 or 16 chicks are used for each test or control group.

The subject of assay [2] is swine ileal or cecal inoculum (filtrate of cannula material). Briefly: In vitro swine procedure (incubation of inoculum from cannulated swine, in vitro fistula procedure). Further details: species or system swine (Yorksire barrow).
Setting [3] is: days 3-17, read-out: Feed Gain (3-17 day).
Setting [4] is: days 3-17, read-out: Weight (17 day).
Setting [5] is: 1.67 ppm, 5 hours at 37°, blank control = 100%.
Where [6] appears, read: 16.67 ppm, 5 hours at 37°, blank control = 100%.
Setting [7] is: 166.67 ppm, 5 hours at 37°, blank control = 100%.
Where [8] appears, read: 116.67 ppm, 5 hours at 37°, blank control = 100%.
Where [9] appears, read: 50.0 (unit not given) in feed, days 3-17.

Several values for one entry are separate records, joined by “and”; a condition that tells them apart may be missing. Identical values can stand only once. Like-named read-outs stand apart in the source and are kept apart here.

On to “3-azabicyclo[3.2.2]nonane-3-carbothioic acid 2-[1-(2-pyridyl)ethyl]hydrazide”, for which, in assay [1] (fed at 50 ppm), the feed conversion result is “better feed conversion” and the weight gain entry was “increased weight gain”.
In the case of `COC(=O)NN=Cc1ccncc1`, the response vs control in vivo at 40 ppm is 102% in assay [1] (setting [3]) and 96.9% in assay [1] (setting [4]).
For `CC(=NNC(=S)N1CCCCCC1)c1ccccn1` [Compound 10], the response vs control in vivo at 10 ppm in assay [1] (setting [3]) was 92.3%; in assay [1] (setting [4]), 110%. Further, the response vs control in vivo at 50 ppm is 80.6% in assay [1] (setting [3]) and 103% in assay [1] (setting [4]).
`CSC(=S)NN=C(C)c1ccccn1` [drawing 16]: the response vs control in vivo at 40 ppm in assay [1] (setting [3]) stood at 86.6%; in assay [1] (setting [4]), 72.8%.
Regarding `COC(=O)NN=Cc1ccccn1` [drawing 4], the “LYS (lysine)” value is recorded as 65 % of Control Values in assay [2] (setting [5]), 140 % of Control Values in assay [2] (setting [6]) and 109 % of Control Values in assay [2] (setting [7]). Further, the figures for the “VFA (total of volatile fatty acids)” value in assay [2] (setting [5]), in assay [2] (setting [6]) and in assay [2] (setting [7]) were 90 % of Control Values, 104 % of Control Values and 109 % of Control Values, respectively.
On to `CC(=NNC(=S)N1CC2CCC(CC2)C1)c1ccccn1` [drawing 8], for which the results for the response vs control in vivo at 50 ppm in assay [1] (setting [3]) and in assay [1] (setting [4]) were 80.6% and 103%, respectively.
As for `CC(=NNC(=S)N1CCCCCC1)c1ccccn1` [hexahydro-1H-azepine-1-carbothioic acid [1-(2-pyridinyl)-ethylidinyl]hydrazide], in assay [1] (fed at 10 and 50 ppm), the feed conversion result is “better feed conversion” and the weight gain entry is “increased weight gain”.
For `CC(=NNC(=S)N1CC2CCC(CC2)C1)c1ccccn1` [drawing 15], the response vs control in vivo at 49 ppm amounted to 84.1% in assay [1] (setting [3]) and 102% in assay [1] (setting [4]).
With `COC(=O)NN=Cc1ccccn1` [drawing 12], the response vs control in vivo at 50 ppm in assay [1] (setting [3]) amounted to 86.4%; in assay [1] (setting [4]), 119%.
Turning to Virginiamycin [reference compound], the “GLU (glucose)” value in assay [2] is recorded as 190 % of Control Values. Further, in assay [2] (setting [8]), the “LAC (L lactic acid)” value is reported as 17 % of Control Values, the “LYS (lysine)” value was 171 % of Control Values and the “VFA (total of volatile fatty acids)” value is recorded as 25 % of Control Values. Also, in assay [1] (setting [9]), the “Feed Gain (3-17 day)” value is given as 85.0 % of Control and the “Weight (17 day)” value was 118.9 % of Control.
For the molecule `CC(=NNC(=S)N1CCCCC1)c1ccccn1` [drawing 2], in assay [2] (setting [7]), the “LYS (lysine)” value is 23 % of Control Values and 18 % of Control Values; the “VFA (total of volatile fatty acids)” value is given as 63 % of Control Values.
Regarding `COC(=O)NN=C(C)c1ccccn1` [drawing 13], the response vs control in vivo at 50 ppm stood at 94% in assay [1] (setting [3]) and 110% in assay [1] (setting [4]).
For the molecule `CSC(=S)NN=C(C)c1ccccn1` [drawing 7], in assay [2] (setting [7]), the “GLU (glucose)” value is given as 95 % of Control Values, the “LAC (L lactic acid)” value is 113 % of Control Values, the “LYS (lysine)” value was 103 % of Control Values and the “VFA (total of volatile fatty acids)” value was 89 % of Control Values.
Take `COC(=O)NN=Cc1cccnc1`: the response vs control in vivo at 50 ppm was found to be 102% in assay [1] (setting [3]) and 98.4% in assay [1] (setting [4]).
Turning to `CC(=NNC(=S)N1CC2CCC(CC2)C1)c1ccccn1` [drawing 6], in assay [2], the “VFA (total of volatile fatty acids)” value is on record as 97 % of Control Values. Moreover, the “LYS (lysine)” value in assay [2] (setting [7]) is given as 107 % of Control Values.
On to `CC(=NNC(N)=S)c1ccccn1` [drawing 5], for which, in assay [2] (setting [7]), the “GLU (glucose)” value is 147 % of Control Values, the “LAC (L lactic acid)” value was 88 % of Control Values, the “LYS (lysine)” value is reported as 137 % of Control Values and the “VFA (total of volatile fatty acids)” value is on record as 43 % of Control Values.
For the molecule `COC(=O)NN=C(C)c1ccccn1` [drawing 3], the “LYS (lysine)” value in assay [2] (setting [5]) is reported as 70 % of Control Values; in assay [2] (setting [6]) it was 134 % of Control Values; in assay [2] (setting [7]) it was 99 % of Control Values. Besides, the “VFA (total of volatile fatty acids)” value in assay [2] (setting [6]) is 94 % of Control Values; in assay [2] (setting [7]), 88 % of Control Values.
For `CC(=NNC(=S)N1CCCCC1)c1ccccn1` [drawing 9], the response vs control in vivo at 10 ppm in assay [1] (setting [3]) was 92.3%; in assay [1] (setting [4]), 110%. In addition, the figures for the response vs control in vivo at 50 ppm in assay [1] (setting [3]) and in assay [1] (setting [4]) were 80.6% and 103%, respectively.
`CC(=NNC(N)=S)c1ccccn1` [drawing 14]: the response vs control in vivo at 50 ppm in assay [1] (setting [3]) amounted to 91.2%; in assay [1] (setting [4]) it was 107%.
